Measured values taken from patent US20240350492A1, “Methods for the Prevention and Treatment of Hearing Loss” (Ting Therapeutics LLC, priority 2020, published 2024).

How the values were obtained:
[1] = test system: EGFR downstream signaling pathways (AKT and MAPK); assay: Western blotting of EGFR downstream kinases in organ of Corti after transtympanic injection; assay type: in vivo, mouse; details: middle ear trans tympanic injection, 20 mg/ml; P28 FVB mice
Procedure: […]. […] Quarter 2 in the flow plot presents cells that are positive for EGFR. (B) P28 FVB mice were injected transtympanically with DMSO or 20 mg/ml of AG1478. Western blotting was performed on pooled organs of Corti to detect the phosphorylation of EGFR downstream kinases. (C) Zebrafish not injected or injected with 2 ng of scrambled or EGF ligand (EGFL) specific morpholinos (Gene Tools). […]. Quantification of the HCs was performed in SO3, O1 and O2 neuromasts. P<0.0001 versus the corresponding control (One-way ANOVA). […] (D) PCR from scrambled and EGFL morphants.
Now referring to FIGS. 2A-D, to determine whether functional EGFR is expressed in the adult cochlea, flow cytometry was used to identify epithelial cells that express EGFR protein in the adult cochlea (FIG. 2A). In P28 FVB mice, excluding dead cells and those with autofluorescence, we detected 1140±88 EGFR+; EpCAM+ (an epithelial cell marker) cells from one cochlea (Mean±SEM, n=4).

[2] = test system: adult FVB mice; assay: Mouse model of acute noise-induced hearing loss (ABR, DPOAE, synaptic ribbon counts); details: no noise trauma; vs saline + noise and Afatinib + noise groups
Excerpt: Subcutaneous needle electrodes were inserted behind the pinna (inverting), vertex of the skull (non-inverting) and base of the tail (ground). Tone bursts of 5 ms duration with 0.5 ms cosine-squared envelopes delivered at a rate of 21 stimuli per second with alternating polarity were generated using BioSigRZ software and RZ6 multi I/O processor system (Tucker-Davis Technologies, FL). Stimuli were presented as open field via a speaker (MF1; TDT, FL) placed 10 cm in front of the pinna of the animal. […] Stimulus intensity was decreased in 5 dB increments, starting from 100 db SPL to 0 dB SPL. […] Before the start of every session, stimulus presenting speaker (MF1) was calibrated with a ¼″ microphone (PCB-378C10; PCB Piezotronics, NY) that was also placed 10 cm in front of the speaker.
Another group of mice were administered saline. […] ABR and DPOAE thresholds were recorded prior, 7 days, or 14 days post noise exposure.
These groups of mice were additionally tested for DPOAE threshold.

[3] = test system: zebrafish neuromast hair cells; assay: Zebrafish cisplatin ototoxicity, neuromast hair cell count; assay type: in vivo

For `COc1cc2ncnc(Nc3cccc(Cl)c3)c2cc1OC` [AG1478], the “EGFR downstream signaling (AKT and MAPK) in the organ of Corti” value [1] was “significantly suppressed”.

In the case of `CN(C)C/C=C/C(=O)Nc1cc2c(Nc3ccc(F)c(Cl)c3)ncnc2cc1O[C@H]1CCOC1` [Afatinib], the “DPOAE threshold, Afatinib without noise trauma” value [2] was “reduced DPOAE threshold at all f2 frequencies”.

In the case of `O=C(CCCCCCC(=O)Nc1ccccc1)NO` [Vorinostat], the “protection against CIHL” value ([3]; doses of 0.002, 0.0183 and 0.165 μM, 1 hour pre-incubation, then 400 µM cisplatin for 4 hours) was “showed protection against CIHL” and the “Cisplatin damage in HCs at SO3 and O1-2 neuromasts” value ([3]; pretreated with various doses) was “significantly reduced Cisplatin damage”.
